# Marks after values point to notes of the source that are not given here.
# Tests used:
# [1] = Serum bottle test: medium pH after treatment; assay type: physicochemical
# Protocol: (§1) The test protocol was as follows: 100 mL serum bottles were filled with synthetic nutrient medium, then stoppered, capped, and autoclaved, and allowed to cool to at least 35C. Using a 1 mL syringe with needle, the treatment was added at desired dosages to prepared serum bottles (triplicates of each dosage). No treatment was added for baseline controls. At least 6 baseline serum bottles were used. Using a 1 mL syringe with needle, 0.1 mL of prepared culture was added to each serum bottle.
# (§2) Next, a 10^10 cells/ml concentration of the sulfate reducers was prepared (using autoclaved synthetic nutrient medium) inside an anaerobic chamber. Using a 1 ml syringe with needle, 0.1 ml of the prepared sulfate reducers culture was added to each serum bottle. The bottles were then incubated at the desired temperature.
# (§3) The baseline dissolved sulfide levels were then measured to determine if the samples were ready for efficacy analysis. Using a 30 mL syringe with needle, 30 mL of sample was removed from each serum bottle. About 25 mL of the sample was added to a 30 mL bottle containing 0.125 mL zinc acetate solution, followed by adding 1 mL of 1N NaOH. The sulfide in the fixed sample was then measured. The remaining 5 mL of sample in the syringe was used for pH determination. Separate field studies were also conducted.
# [2] = test system: sulfate reducing bacteria (SRB); test: Serum bottle test: SRB growth after treatment (toxicity); assay type: cell-based, sulfate reducers
# Protocol: as §1, §2, §3
# [3] = test system: microorganisms (PetriFilm Count); test: Serum bottle test: PetriFilm count after treatment (toxicity); assay type: cell-based
# Protocol: as §1, §2, §3
# [4] = test system: real municipal wastewater; test: H2S inhibition using real municipal wastewater, Field Study 1
# [5] = test system: real municipal wastewater; test: H2S inhibition using real municipal wastewater, Field Study 2
# [6] = Field Study 1, scavenger dosage 10 ppm active
# [7] = Field Study 2, scavenger dosage 10 ppm active
# [8] = scavenger dosage 200 ppm active
structure (smiles),measurement,setting,value
"c1ncncn1 [Triazine, triazine]",Medium pH after Treatment,[1]; scavenger dosage 8 ppm active,6.5
same,SRB Growth after Treatment,[2]; scavenger dosage 8 ppm active,10^8
same,PetriFilm Count after Treatment,[3]; scavenger dosage 8 ppm active,5.5 × 10^8
"O=[N+]([O-])[O-].O=[N+]([O-])[O-].[Mg+2] [Mg(NO3)2, magnesium nitrate, reference compound]",Head Space H2S,[4]; [6],27 ppm
same,Head Space H2S,[5]; [7],47 ppm
"O=CC=O [Glyoxal, glyoxal]",Medium pH after Treatment,[1]; scavenger dosage 8 ppm active,6.5
same,SRB Growth after Treatment,[2]; scavenger dosage 8 ppm active,10^8
same,PetriFilm Count after Treatment,[3]; scavenger dosage 8 ppm active,8.3 × 10^8
same,Head Space H2S,"[4]; Field Study 1, scavenger dosage 0.3 ppm active",27 ppm
same,Head Space H2S,"[4]; Field Study 1, scavenger dosage 3.8 ppm active",8 ppm
same,Head Space H2S,"[4]; Field Study 1, scavenger dosage 6.0 ppm active",7 ppm
same,Head Space H2S,"[4]; Field Study 1, scavenger dosage 8 ppm active",2 ppm
same,Head Space H2S,[4]; [6],0.5 ppm
same,Head Space H2S,"[5]; Field Study 2, scavenger dosage 0.5 ppm active",47 ppm
same,Head Space H2S,"[5]; Field Study 2, scavenger dosage 4.0 ppm active",12 ppm
same,Head Space H2S,"[5]; Field Study 2, scavenger dosage 6.0 ppm active",0.1 ppm
same,Head Space H2S,"[5]; Field Study 2, scavenger dosage 8.0 ppm active",0.1 ppm
same,Head Space H2S,[5]; [7],5.0* ppm
"O=CCCCC=O [Glutaraldehyde, reference compound]",Medium pH after Treatment,[1]; [8],7.5
same,SRB Growth after Treatment,[2]; [8],0
same,PetriFilm Count after Treatment,[3]; [8],0

# Source: patent US7255796B2, “Method of preventing hydrogen sulfide odor generation in an aqueous medium” (General Electric Company, priority 2004, dated 2007)
